Measured values published in ChEMBL document CHEMBL1148572, “1-((S)-2-aminopropyl)-1H-indazol-6-ol: a potent peripherally acting 5-HT2 receptor agonist with ocular hypotensive activity” (J Med Chem, 2006).

Legend:
[1] = molecular target: T1, Alpha-2A adrenergic receptor (Homo sapiens, UniProt P08913); assay: Activity at adrenergic alpha2A receptor expressed in human clonic adenocarcinoma HT29 cell by […]; type: functional, cell-based, HT-29
T1 sequence (P08913 whole entry): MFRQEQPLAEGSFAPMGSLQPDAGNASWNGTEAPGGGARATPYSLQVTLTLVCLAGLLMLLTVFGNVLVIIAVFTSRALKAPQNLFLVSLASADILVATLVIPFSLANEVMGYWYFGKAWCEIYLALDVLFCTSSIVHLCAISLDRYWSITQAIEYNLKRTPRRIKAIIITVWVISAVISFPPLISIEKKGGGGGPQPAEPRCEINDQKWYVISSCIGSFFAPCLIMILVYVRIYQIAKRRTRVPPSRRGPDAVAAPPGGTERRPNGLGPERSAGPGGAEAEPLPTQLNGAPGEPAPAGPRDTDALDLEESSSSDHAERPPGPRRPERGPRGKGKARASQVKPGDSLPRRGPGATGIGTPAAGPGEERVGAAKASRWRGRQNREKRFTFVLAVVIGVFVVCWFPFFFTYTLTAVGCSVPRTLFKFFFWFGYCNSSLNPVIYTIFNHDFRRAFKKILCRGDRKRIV

Homo sapiens = species: Homo sapiens; assay: Inhibition of inositol triphosphate IP3 at 10 uM; type: functional
[2] = Inhibition of alpha-bungarotoxin insensitive nicotinic receptor at 1 nM
[3] = molecular target: T2, 5-hydroxytryptamine receptor 1A (Homo sapiens) (UniProt P08908); assay: Inhibition of forskolin activated adenylate cyclase at 100 nM; type: functional
T2 sequence (whole entry): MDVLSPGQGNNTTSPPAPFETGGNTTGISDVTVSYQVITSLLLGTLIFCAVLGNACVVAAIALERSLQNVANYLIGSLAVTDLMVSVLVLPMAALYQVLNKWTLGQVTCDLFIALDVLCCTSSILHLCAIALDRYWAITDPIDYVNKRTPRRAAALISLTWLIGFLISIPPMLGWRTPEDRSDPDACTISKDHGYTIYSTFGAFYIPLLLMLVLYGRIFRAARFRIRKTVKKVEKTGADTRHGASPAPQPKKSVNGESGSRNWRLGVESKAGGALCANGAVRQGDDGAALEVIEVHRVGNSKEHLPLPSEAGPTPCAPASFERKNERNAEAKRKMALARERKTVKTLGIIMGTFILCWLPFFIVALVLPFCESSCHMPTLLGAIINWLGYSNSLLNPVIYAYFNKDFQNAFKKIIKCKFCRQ

[4] = molecular target: Glutamate [NMDA] receptor (Homo sapiens) (UniProt Q05586+Q12879+Q13224+O15399+O60391+Q14957+Q8TCU5); assay: Inhibition of MK-801 site of glutamate receptor at 10 uM; type: protein-complex assay
[5] = molecular target: Muscarinic acetylcholine receptor (Homo sapiens) (UniProt P20309+P08173+P11229+P08172+P08912); assay: Inhibition of non selective binding to muscarinic receptor at 1 nM; type: protein assay
[6] = molecular target: Opioid receptors; mu/kappa/delta (Homo sapiens) (UniProt P41145+P41143+P35372); assay: Inhibition of non selective binding to opiate receptor at 1 nM; type: protein assay
Sequence of Opioid receptors; mu/kappa/delta (Homo sapiens) (P35372 whole entry, looked up): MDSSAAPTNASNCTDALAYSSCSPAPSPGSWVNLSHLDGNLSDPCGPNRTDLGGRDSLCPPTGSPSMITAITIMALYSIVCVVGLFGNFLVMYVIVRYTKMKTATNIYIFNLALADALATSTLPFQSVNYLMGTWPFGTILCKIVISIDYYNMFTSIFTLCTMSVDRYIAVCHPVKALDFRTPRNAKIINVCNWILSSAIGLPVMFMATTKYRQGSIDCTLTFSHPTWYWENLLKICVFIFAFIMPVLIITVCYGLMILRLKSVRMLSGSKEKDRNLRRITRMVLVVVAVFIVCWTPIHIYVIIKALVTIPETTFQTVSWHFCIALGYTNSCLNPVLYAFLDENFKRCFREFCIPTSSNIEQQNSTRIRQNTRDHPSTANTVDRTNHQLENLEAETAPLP
Sequence of Opioid receptors; mu/kappa/delta (Homo sapiens) (P41143 whole entry, looked up): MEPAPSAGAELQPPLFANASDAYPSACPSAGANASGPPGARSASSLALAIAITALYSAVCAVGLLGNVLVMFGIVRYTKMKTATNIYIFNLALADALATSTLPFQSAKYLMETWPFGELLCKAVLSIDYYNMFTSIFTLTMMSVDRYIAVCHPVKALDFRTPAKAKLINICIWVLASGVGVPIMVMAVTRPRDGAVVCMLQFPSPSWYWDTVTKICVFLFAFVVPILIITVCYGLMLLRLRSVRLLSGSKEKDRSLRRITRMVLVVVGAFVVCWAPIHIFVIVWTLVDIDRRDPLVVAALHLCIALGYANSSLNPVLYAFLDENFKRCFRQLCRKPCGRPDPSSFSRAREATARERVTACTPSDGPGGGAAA
Sequence of Opioid receptors; mu/kappa/delta (Homo sapiens) (P41145 whole entry, looked up): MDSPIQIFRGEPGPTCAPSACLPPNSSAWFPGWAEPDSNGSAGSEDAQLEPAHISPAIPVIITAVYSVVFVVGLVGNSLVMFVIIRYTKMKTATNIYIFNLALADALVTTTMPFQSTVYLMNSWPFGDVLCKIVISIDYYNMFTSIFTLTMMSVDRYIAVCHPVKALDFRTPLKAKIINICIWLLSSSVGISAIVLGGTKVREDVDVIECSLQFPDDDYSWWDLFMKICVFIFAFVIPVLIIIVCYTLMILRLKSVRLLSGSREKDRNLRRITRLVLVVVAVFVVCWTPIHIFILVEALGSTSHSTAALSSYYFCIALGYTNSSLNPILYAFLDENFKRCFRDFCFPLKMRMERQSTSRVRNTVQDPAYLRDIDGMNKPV

[7] = molecular target: Alpha-1A adrenergic receptor (Homo sapiens, UniProt P35348); assay: Inhibitory activity against adrenergic alpha-1A receptor
Sequence of Alpha-1A adrenergic receptor (P35348 whole entry): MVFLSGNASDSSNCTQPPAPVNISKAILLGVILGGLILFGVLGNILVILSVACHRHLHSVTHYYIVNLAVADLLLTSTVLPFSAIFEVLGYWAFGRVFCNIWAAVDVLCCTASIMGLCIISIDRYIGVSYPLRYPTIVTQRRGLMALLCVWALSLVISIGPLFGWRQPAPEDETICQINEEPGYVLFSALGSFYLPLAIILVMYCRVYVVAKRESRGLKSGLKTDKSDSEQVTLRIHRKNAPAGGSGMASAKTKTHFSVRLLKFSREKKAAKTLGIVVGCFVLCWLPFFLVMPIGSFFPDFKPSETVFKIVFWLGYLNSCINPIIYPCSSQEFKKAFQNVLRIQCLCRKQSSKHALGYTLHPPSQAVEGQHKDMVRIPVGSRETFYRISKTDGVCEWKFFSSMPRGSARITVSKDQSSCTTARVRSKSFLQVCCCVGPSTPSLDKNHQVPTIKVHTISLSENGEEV

[8] = molecular target: T3, monoamine oxidase A (MAO-A) (Rattus norvegicus, UniProt P21396); assay: Inhibition of monoamine oxidase A in rat brain at 1 nM; type: tissue-based
T3 sequence (P21396 whole entry): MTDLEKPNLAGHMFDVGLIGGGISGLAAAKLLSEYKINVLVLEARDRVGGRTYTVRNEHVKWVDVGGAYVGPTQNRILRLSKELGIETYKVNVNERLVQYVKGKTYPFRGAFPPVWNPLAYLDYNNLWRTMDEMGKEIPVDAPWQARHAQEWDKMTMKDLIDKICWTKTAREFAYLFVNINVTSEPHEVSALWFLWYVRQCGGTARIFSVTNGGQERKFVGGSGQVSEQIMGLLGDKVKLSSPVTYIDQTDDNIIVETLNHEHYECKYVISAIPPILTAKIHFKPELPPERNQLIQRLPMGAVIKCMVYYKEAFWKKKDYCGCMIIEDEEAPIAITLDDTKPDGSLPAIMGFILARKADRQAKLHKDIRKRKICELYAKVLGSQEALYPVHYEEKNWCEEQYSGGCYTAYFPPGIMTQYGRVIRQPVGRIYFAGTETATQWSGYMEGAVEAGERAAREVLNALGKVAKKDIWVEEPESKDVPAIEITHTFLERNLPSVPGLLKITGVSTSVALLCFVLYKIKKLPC

[9] = Inhibitory activity at site 2 of sodium channel at 1 nM
[10] = molecular target: Estrogen receptor (Homo sapiens) (UniProt Q92731+P03372); assay: Inhibition of estrogen receptor at 1 nM; type: protein assay
[11] = molecular target: 5-hydroxytryptamine receptor 2B (Rattus norvegicus, UniProt P30994); assay: Activity against 5HT2B receptor in longitudinal stomach fundus strips in wistar rats
Sequence of 5-hydroxytryptamine receptor 2B (P30994 whole entry): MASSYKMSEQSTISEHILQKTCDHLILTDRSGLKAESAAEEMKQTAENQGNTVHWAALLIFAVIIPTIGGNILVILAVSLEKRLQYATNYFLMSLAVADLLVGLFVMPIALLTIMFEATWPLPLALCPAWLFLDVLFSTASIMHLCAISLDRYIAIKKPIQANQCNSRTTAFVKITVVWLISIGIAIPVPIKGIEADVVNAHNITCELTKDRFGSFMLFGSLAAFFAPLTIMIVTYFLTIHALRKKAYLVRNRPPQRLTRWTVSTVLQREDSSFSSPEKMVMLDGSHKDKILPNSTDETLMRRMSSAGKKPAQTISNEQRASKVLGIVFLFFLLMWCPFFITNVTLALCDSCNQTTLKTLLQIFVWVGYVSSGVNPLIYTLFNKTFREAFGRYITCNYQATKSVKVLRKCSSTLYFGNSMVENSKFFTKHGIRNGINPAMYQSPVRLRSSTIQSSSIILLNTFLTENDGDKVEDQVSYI

`C[C@H](N)Cn1ncc2ccc(O)cc21` showed an EC50 [1] of 2.6 µM, an inhibition (Homo sapiens) of 2.11% and an inhibition [2] of 7.15%. For the same compound, the inhibition [3] was -2.24%, the inhibition [4] was 15.1% and the inhibition [5] was -0.51%. For the same compound, the inhibition [6] was -6.1%, the Ki [7] was over 30 µM and the inhibition at 0.001 µM [8] was -14.4%. For the same compound, the inhibition [9] was 10.3%, the inhibition [10] was 10.8% and the EC50 [11] was 0.002 µM.
